# Columns and labels:
# hsp70-coding region = assay: Southern analysis of psoralen crosslinking in salivary glands; format: cell-based, Drosophila melanogaster; settings: heat-shocked salivary gland chromosomes treated with α-amanitin prior to the crosslinking step; FIG. 3 lanes 6 and 7
# Description: (§1) Drosophila melanogaster Oregon R was grown at 18° C. According to the test protocol, some third-instar larvae were subjected to heat shock treatment; i.e., the larvae were collected in a polypropylene tube, and the tube was submerged in a 37° C. water bath for 10 minutes. Salivary glands were obtained through dissection of the larvae in a dissection buffer (10 mM HEPES-KOH (pH 7.6), 5 mM MgCl2, 5 mM KCl, 130 mM NaCl, 1% polyethylene glycol 6000). Also according to the test protocol, some of the salivary gland specimens were exposed to X-ray irradiation for 60 minutes at a dose rate of about 3 Gy/min (TORREX CABINET X-RAY SYSTEM Model TRX2800, Faxitron), whereby nicks were introduced into DNA.
# Application of heat shock and dissection of larvae were performed in a manner similar to those employed for staining. […]
# After electrophoresis, the gel was incubated with a denaturing solution (0.5M NaOH, 1.5M NaCl) at 65° C. for 100 minutes for reverse crosslinking of DNA with psoralen. […] Hybridization signals were detected by use of X-ray film. […]
# The protocol will be described briefly as follows. […] The DNA fragments were blotted onto a nylon membrane. hsp70 located at 87A7 (FIG. 1, CRs and DDS) was analyzed using probes through the Southern method. […]
# [1] = system: negative supercoils of DNA on salivary gland chromosomes; assay: Staining of salivary gland chromosomes with biotinylated psoralen / Alexa 488-labeled streptavidin; format: cell-based, Drosophila melanogaster
# Description: as §1
# Four or five pairs of salivary glands were treated with a dissection buffer (40 μL) containing 0.01% digitonin and rinsed with a dissection buffer containing no digitonin. Subsequently, the resultant salivary glands were treated with a dissection buffer containing 0.2 ng/ml biotinylated psoralen for 10 minutes. […] Br-UTP was detected with anti-BrdU monoclonal antibody (Roche) and rhodamin-labeled anti-mouse IgG antibody.
# Biotinylated psoralen was detected with Alexa 488-labeled streptavidin (Molecular Probe). […] Fluoroimages were analyzed with a Carl Zeiss Axioplan 2 microscope and IP lab software.
# In order to visualize negative supercoils of DNA on salivary gland chromosomes throughout the entire genome, we have extended the psoralen crosslinking protocol, using a protocol in which biotinylated psoralen is detected with fluorescence-labeled streptavidin. […] Biotinylated psoralen was detected with Alexa 488-labeled streptavidin. […] Such signals were not detected when the chromosomes had been treated with a psoralen-free buffer, or when the crbsslinking step was not performed after treatment with psoralen. […] When chromosomes had been irradiated with X-ray (180 Gy) before crosslinking with biotinylated psoralen to thereby introduce nicks into the DNA, psoralen signals which may otherwise appear in interbands and puffs were not detected (FIGS. 5A to 5C). […]
# [2] = heat shocked larvae, α-amanitin treatment prior to crosslinking, FIGS. 7D to 7F
substance,measurement,setting,value
α-Amanitin,"crosslink-related signals (psoralen crosslinking, Southern)",hsp70-coding region,substantially no crosslink-related signals were detected
same,configuration of heat shock puffs,[1]; [2],did not affect
same,psoralen signals in heat shock puffs,[1]; [2],not detected
same,psoralen signals in interbands and puffs,"[1]; non-heat shocked, 3 μg/mL α-amanitin before crosslinking with biotinylated psoralen, FIGS. 5D and 5E",undetected

# Source: US20040235007A1, “Method for detecting negatively supercoiled DNA” (National Institute of Genetics, priority 2003, published 2004)
